One test has as its target KHK-C (Homo sapiens (Human), UniProt P50053). As to the kind of experiment: 3-step coupled-enzyme KHK assay (KHK, PK, LDH; NADH disappearance). In kind it is biochemical. Conditions: recombinant KHK-C, 1 mM fructose, A340 at 37° C. The protocol: Specific high-throughput screening assays were developed for KHK-C and KHK-A using recombinant proteins. Purified human recombinant KHK-C and KHK-A were produced using the Bio-Rad Profinity eXact Fusion-Tag System and Profinia protein purification instrument. The assays consist of a 3-step, coupled-enzyme process involving fructokinase (KHK), pyruvate kinase (PK) and lactate dehydrogenase (LDH). ^1,2 The disappearance of NADH is measured kinetically by A340 at 37° C. The enzymatic assay was carried out in a total reaction volume of 200 ul containing 50 mM PIPES, 6 mM MgCl2, 100 mM KCl, 100 uM-5 mM ATP, 2 mM phosphoenolpyruvate, 0.3 mM NADH, 15 U of pyruvate kinase, 15 U of lactate dehydrogenase, and 75-1000 ng KHKC. 1 mM fructose was added to the reactions, except for the no fructose controls which utilized water. The high-throughput assay was used to identify inhibitors that have an IC50 value <5 μM for KHK-C.^5 The '559 pub also sets forth a KHK assay for testing inhibition activity of potential KHK inhibitors.
Sequence of KHK-C (P50053 whole entry, the tested form may be a part): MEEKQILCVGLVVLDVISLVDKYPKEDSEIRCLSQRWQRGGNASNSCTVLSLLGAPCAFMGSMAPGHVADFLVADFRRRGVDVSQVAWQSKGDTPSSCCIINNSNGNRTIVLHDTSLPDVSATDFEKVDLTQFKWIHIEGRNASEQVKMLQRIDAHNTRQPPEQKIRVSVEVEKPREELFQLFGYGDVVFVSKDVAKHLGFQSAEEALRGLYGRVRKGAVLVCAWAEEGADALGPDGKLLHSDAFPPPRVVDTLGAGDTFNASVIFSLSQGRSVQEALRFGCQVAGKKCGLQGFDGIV
As to `Cc1cccc(-n2ncc3ccc(C(=O)NC4CCNCC4)cc32)c1` [Compound C-32, N-(piperidin-4-yl)-1-(m-tolyl)-1H-indazole-6-carboxamide], the IC50 (as a rule, the concentration at which inhibition is half-maximal) came to 0.79 µM.

Regarding `Cc1cccc(-n2ncc3ccc(C(=O)NC4CNC4)cc32)c1` [Compound C-33, N-(azetidin-3-yl)-1-(m-tolyl)-1H-indazole-6-carboxamide], the 50% inhibitory concentration (IC50) turned out to be 2.3 µM.

Regarding `O=C(NC1CNC1)c1ccc2cnn(-c3ccccc3)c2c1` [Compound C-34, N-(azetidin-3-yl)-1-phenyl-1H-indazole-6-carboxamide], the IC50 was 0.58 µM.

`O=C(NC1CCNCC1)c1ccc2cnn(-c3ccccc3)c2c1` [Compound C-26, 1-phenyl-N-(piperidin-4-yl)-1H-indazole-6-carboxamide]: the half-inhibitory concentration (IC50) was determined as 2.3 µM.

Consider `Cc1cccc(-n2ncc3ccc(NC(=O)C4CCN4)cc32)c1` (stereo not shown) [Compound C-72], for which the 50% inhibitory concentration (IC50) turned out to be 1.2 µM.

For the compound `Nc1cc(-c2ccc3c(C4CC4)nn(-c4ccccc4)c3c2)ccn1` [Compound C-28, 4-(3-cyclopropyl-1-phenyl-1H-indazol-6-yl)pyridin-2-amine], the IC50 was determined as 0.7 µM.

With `Cc1cccc(-n2ncc3ccc(NC(=O)C4CNC4)cc32)c1` [Compound C-25, N-(1-(m-tolyl)-1H-indazol-6-yl)azetidine-3-carboxamide], the IC50 was determined as 0.51 µM.

As to `Cc1cccc(-n2ncc3ccc(-c4ccnc(N)c4)cc32)c1` [Compound C-5, 4-(1-(m-tolyl)-1H-indazol-6-yl)pyridin-2-amine], the IC50 worked out at 0.28 µM.

Staying with this test, now noted: recombinant KHK-C, 1 mM fructose, A340 at 37° C.; heading: IC50 Result.
Take `Nc1cc(-c2ccc3cnn(-c4ccccc4)c3c2)ccn1` [Compound C-1, 4-(1-phenyl-1H-indazol-6-yl)pyridin-2-amine]: the IC50 came out at 1.17 µM.

The next test concerns aldoB−/− KO mice. Briefly: Fructose-induced hypoglycemia in Aldolase B Knockout Mice. In kind it is in vivo. Conditions: 25 mg/kg IP 30 min before and repeated at oral fructose gavage (1.5 g/kg), glucose over 90 minutes. The text has this: Example 12 describes fructokinase inhibition results and fructose-induce hypoglycemia prevention results obtained from in vivo assay in Aldolase B Knockout Mice. Hereditary Fructose intolerance is a rare genetic disease due to deficiency of aldolase B that is associated with over activation of KHK-C. One of the key features in these individuals is the development of acute hypoglycemia following exposure to fructose ingestion due to rapid uptake of glucose into the liver with the formation of glycogen. Recently, an aldolase-B KO (aldoB^−/−) mouse that has the clinical features of HFI in humans was developed. These mice develop immediate dose-dependent hypoglycemia in response to fructose, but also develop fatty liver within days of low grade fructose feeding.
The procedure used in Example 12 consisted of first fasting animals for six hours, followed by the administration of fructose by oral gavage (45 mg fructose, equivalent to 1.5 g/kg body weight) or vehicle (water) to mice and following serum glucose levels over 90 minutes by measuring glucose with a glucometer from tail snip bleeds. With vehicle administration serum glucose stays normal, but when fructose is administered to aldolase B knockout mice a progressive fall in serum glucose occurs, as noted by the percent (%) of the baseline level. […]
In the case of `Cc1cccc(-n2ncc3ccc(NC(=O)C4CNC4)cc32)c1` [Compound C-25, N-(1-(m-tolyl)-1H-indazol-6-yl)azetidine-3-carboxamide], the “hypoglycemic response to fructose (serum glucose, % of baseline)” value is “hypoglycemic response was prevented”.
